Assay results reported in US12233144B2, “Method for stabilizing retinoic acid precursors and a skin benefit composition with stabilized retinoic acid precursors” (Conopco, Inc., priority 2016, dated 2025).
Where two headings read alike, the source gives them in different places.

Assays:
[1] = Storage stability of retinoic acid precursor (RAP) in caprylic capric triglyceride at 45° C, RAP amount by HPLC; type: physicochemical; details: for Initial RAP Concentration, Week 0 / RAP Concentration, Week 1 / RAP Concentration, Week 4 / RAP Concentration, Week 20: Example 1, caprylic capric triglyceride carrier, storage 45° C, ER 0.35% where present
Method: Compositions were prepared with caprylic capric triglyceride as the carrier to 100%. Storage was maintained at 45° C. Assessment of RAP amount in the formulae was achieved via HPLC using ASTM Standards. […]

[2] = as above; type: physicochemical; details: Example 3; RAP alone, no SBA (ratio —)

## CCc1ccc(O)cc1O [4-ethyl resorcinol]
[1]
  Effect on stability of the RAPs (in words): improves the stability of the RAPs by preventing oxidation

## COc1ccc(C(=O)COC(=O)\C=C(C)/C=C/C=C(C)/C=C/C2=C(C)CCCC2(C)C)cc1 [Retextra ®, hydroxyanasatil retinoate]
[1]
  Week 4 % Remaining: 0%
  Week 20 % Remaining: 0%
  Initial RAP Concentration, Week 0: 0.36%
  RAP Concentration, Week 1: 0.14%
  RAP Concentration, Week 4: 0%
  RAP Concentration, Week 20: 0%

## CC1=C(/C=C/C(C)=C/C=C/C(C)=C/CO)C(C)(C)CCC1 [Retinol]
[1]; 4 week, 0.1 %
  Week 4 % Remaining: 1%
[1]; 20 week, 0.1 %
  Week 20 % Remaining: 0%
[1]
  Initial RAP Concentration, Week 0: 0.1%
  RAP Concentration, Week 1: 0.042%
  RAP Concentration, Week 4: 0.001%
  RAP Concentration, Week 20: 0%
[2]
  Week 0 Concentration: 0.1
  Week 1 Concentration: 0.042
  Week 4 Concentration: 0.001

## CCC(=O)OC/C=C(C)/C=C/C=C(C)/C=C/C1=C(C)CCCC1(C)C [Retinyl Propionate]
[1]
  Week 4 % Remaining: 84%
  Week 20 % Remaining: 0%
  Initial RAP Concentration, Week 0: 0.38%
  RAP Concentration, Week 1: No
  RAP Concentration, Week 4: 0.32%
  RAP Concentration, Week 20: 0%
[2]
  Week 0 Concentration: 0.38
  Week 1 Concentration: 0.38
  Week 4 Concentration: 0.32
